The target of test [1] is mushroom TYR (tyrosinase). Kind of test: dopachrome formation from L-DOPA (A475), commercial mushroom TYR; IC50 […] at […] L-DOPA, […] at […]; also traps dopaquinone. Type of test: biochemical.
For the next test, the target named is T1, human TYR (tyrosinase) (Homo sapiens, UniProt P14679).
T1 sequence (P14679 19-529): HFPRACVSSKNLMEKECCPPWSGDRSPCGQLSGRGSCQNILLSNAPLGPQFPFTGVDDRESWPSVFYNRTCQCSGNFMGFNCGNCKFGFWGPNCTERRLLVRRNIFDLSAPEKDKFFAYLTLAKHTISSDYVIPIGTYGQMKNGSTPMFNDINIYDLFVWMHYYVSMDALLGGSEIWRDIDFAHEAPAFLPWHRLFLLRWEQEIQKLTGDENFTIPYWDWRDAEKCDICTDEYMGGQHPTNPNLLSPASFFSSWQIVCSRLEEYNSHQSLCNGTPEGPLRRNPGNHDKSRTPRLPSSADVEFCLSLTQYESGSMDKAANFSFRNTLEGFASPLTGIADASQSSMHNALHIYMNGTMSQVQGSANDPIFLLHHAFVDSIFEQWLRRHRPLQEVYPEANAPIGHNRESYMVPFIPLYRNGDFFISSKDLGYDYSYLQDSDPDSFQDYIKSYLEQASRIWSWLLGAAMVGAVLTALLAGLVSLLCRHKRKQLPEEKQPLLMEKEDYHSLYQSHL
Briefly: dopachrome formation (A475) in lysate of HEK293 cells expressing human TYR; […] inhibition at […] (dopaquinone trapping may contribute). Type of test: cell-based.

Data on 2 compounds can be found in article PMC8388879 (Antioxidants, 2021).

As usually defined, the IC50 is the concentration needed to halve the response being measured. A low value points to greater potency. In general, inhibition refers to the drop in the measured response relative to a control, in per cent.

`NC(=O)[C@@H](N)CS` [C-NH2, L-Cysteinamide] had an IC50 in test [1] of 115 µM.
For the compound `N[C@@H](CS)C(=O)O` [L-cysteine], the inhibition at 200 µM on human TYR (tyrosinase) was found to be 70%.
